In article PMC9671100 (RSC Advances, 2022):
Values joined by “and” are separate entries in the source; they are usually repeats but may differ in a detail not shown here. Equal values may be shown once.

Experiments:
[1] = ABTS radical scavenging activity; conditions: for ABTS EC50: 732 nm, 6 min; for Fold = IC50 of ascorbic acid/IC50 of compounds 5a–p: ratio of the ABTS values relative to ascorbic acid
[2] = DPPH radical scavenging activity; conditions: 517 nm, 5 min at room temperature
[3] = target: AChE (from Electrophorus electricus) (Electrophorus electricus, UniProt O42275); experiment: Anticholinesterase assay; type: biochemical
BChE (from equine serum) = BChE (from equine serum) (Equus caballus, UniProt P81908); experiment: Anticholinesterase assay; type: biochemical; conditions: for IC50: BChE IC50, IC50 ± SEM, Ellman method, 30 min incubation, triplicate
Sequence of BChE (from equine serum) (P81908 whole entry): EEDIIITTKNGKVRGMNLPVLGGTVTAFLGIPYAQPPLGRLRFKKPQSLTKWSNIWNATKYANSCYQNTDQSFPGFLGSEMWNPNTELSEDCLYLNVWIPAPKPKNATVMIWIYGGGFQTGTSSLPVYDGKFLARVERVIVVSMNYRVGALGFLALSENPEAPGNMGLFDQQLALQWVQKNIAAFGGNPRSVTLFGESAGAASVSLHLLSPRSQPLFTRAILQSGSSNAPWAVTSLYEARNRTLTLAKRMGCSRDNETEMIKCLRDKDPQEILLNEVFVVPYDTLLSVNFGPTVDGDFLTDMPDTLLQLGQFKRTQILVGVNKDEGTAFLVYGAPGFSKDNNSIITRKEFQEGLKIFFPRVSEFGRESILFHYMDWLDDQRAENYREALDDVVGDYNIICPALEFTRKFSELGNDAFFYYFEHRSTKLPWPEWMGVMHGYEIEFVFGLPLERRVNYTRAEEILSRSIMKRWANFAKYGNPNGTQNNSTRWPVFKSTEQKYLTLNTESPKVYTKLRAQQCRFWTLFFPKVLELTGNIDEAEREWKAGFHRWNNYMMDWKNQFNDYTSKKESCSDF

Sequence of AChE (from Electrophorus electricus) (O42275 24-633): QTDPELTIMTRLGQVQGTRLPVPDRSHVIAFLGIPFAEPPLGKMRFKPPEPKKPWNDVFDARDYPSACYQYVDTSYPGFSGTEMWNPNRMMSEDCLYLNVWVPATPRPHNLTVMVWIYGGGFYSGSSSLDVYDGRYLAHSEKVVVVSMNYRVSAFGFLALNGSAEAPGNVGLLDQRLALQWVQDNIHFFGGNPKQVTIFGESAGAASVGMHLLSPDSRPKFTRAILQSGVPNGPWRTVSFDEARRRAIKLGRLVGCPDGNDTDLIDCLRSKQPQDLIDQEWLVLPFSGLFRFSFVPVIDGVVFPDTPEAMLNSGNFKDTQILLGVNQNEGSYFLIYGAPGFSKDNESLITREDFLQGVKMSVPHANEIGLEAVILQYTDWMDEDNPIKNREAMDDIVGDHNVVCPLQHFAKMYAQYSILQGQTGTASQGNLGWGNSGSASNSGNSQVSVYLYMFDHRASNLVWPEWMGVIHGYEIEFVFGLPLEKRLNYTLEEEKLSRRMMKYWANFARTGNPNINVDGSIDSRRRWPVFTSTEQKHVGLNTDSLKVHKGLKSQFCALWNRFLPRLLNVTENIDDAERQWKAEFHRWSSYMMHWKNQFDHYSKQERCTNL

SMILES | ABTS EC50 [1] [µg/mL] | Fold = IC50 of ascorbic acid/IC50 of compounds 5a–p [1] | DPPH EC50 [2] [µg/mL] | IC50 [3] [µM] | IC50 (BChE (from equine serum)) [µM] | times less potent than galantamine against BChE (BChE (from equine serum); IC50 ratio versus galantamine)
Cc1nn(-c2ccccc2)c2nc3c(cc12)-c1nc(N)c(C#N)c(-c2ccc(O)cc2)c1CC3 [5g, 2-Amino-4-(4-hydroxyphenyl)-10-methyl-8-phenyl-6,8-dihydro-5H-pyrazolo[3,4-j][1,7]phenanthroline-3-carbonitrile] | <3 | more than nine times | >100 |  |  | 
Cc1nn(-c2ccccc2)c2nc3c(cc12)-c1nc(N)c(C#N)c(-c2ccc4c(c2)OCO4)c1CC3 [5l, 2-Amino-4-(benzo[d][1,3]dioxol-5-yl)-10-methyl-8-phenyl-6,8-dihydro-5H-pyrazolo[3,4-j][1,7]phenanthroline-3-carbonitrile] | >100 |  | >100 | 167.94 ± 0.04 | 119 | 15
CCOc1nc2c(c(-c3ccccc3)c1C#N)CCc1nc3c(cc1-2)c(C)nn3-c1ccccc1 [5p, 2-Ethoxy-10-methyl-4,8-diphenyl-6,8-dihydro-5H-pyrazolo[3,4-j][1,7]phenanthroline-3-carbonitrile] | >100 |  | >100 | 329.67 ± 0.01 | ≥ 375 | 
Cc1nn(-c2ccccc2)c2nc3c(cc12)-c1nc(N)c(C#N)c(-c2cc4ccccc4nc2Cl)c1CC3 [5f, 2-Amino-4-(2-chloroquinolin-3-yl)-10-methyl-8-phenyl-6,8-dihydro-5H-pyrazolo[3,4-j][1,7]phenanthroline-3-carbonitrile] | 3.10 | 9 and 8.91 | >100 | 135.33 ± 0.04 | ≥ 375 | 
Cc1nn(-c2ccccc2)c2nc3c(cc12)-c1nc(N)c(C#N)c(-c2ccccc2)c1CC3 [5a, 2-Amino-10-methyl-4,8-diphenyl-6,8-dihydro-5H-pyrazolo[3,4-j][1,7]phenanthroline-3-carbonitrile] | >100 |  | >100 | 259.87 ± 0.03 | > 875 | 
COc1cc(-c2c(C#N)c(N)nc3c2CCc2nc4c(cc2-3)c(C)nn4-c2ccccc2)cc(OC)c1OC [5j, 2-Amino-10-methyl-8-phenyl-4-(3,4,5-trimethoxyphenyl)-6,8-dihydro-5H-pyrazolo[3,4-j][1,7]phenanthroline-3-carbonitrile] | >100 |  | >100 | 224.54 ± 0.018 | ≥ 375 | 
Cc1nn(-c2ccccc2)c2nc3c(cc12)-c1nc(N)c(C#N)c(-c2ccc([N+](=O)[O-])cc2)c1CC3 [5e, 2-Amino-10-methyl-4-(4-nitrophenyl)-8-phenyl-6,8-dihydro-5H-pyrazolo[3,4-j][1,7]phenanthroline-3-carbonitrile] | 11.51 | 2 and 2.40 | 26.71 | 191.28 ± 0.015 | ≥ 375 | 
Cc1ccc(-c2c(C#N)c(N)nc3c2CCc2nc4c(cc2-3)c(C)nn4-c2ccccc2)cc1 [5b, 2-Amino-10-methyl-8-phenyl-4-(p-tolyl)-6,8-dihydro-5H-pyrazolo[3,4-j][1,7]phenanthroline-3-carbonitrile] | 98.77 | 0.28 | >100 |  | > 847 | 
Cc1nn(-c2ccccc2)c2nc3c(cc12)-c1nc(N)c(C#N)c(-c2ccc(Cl)cc2)c1CC3 [5d, 2-Amino-4-(4-chlorophenyl)-10-methyl-8-phenyl-6,8-dihydro-5H-pyrazolo[3,4-j][1,7]phenanthroline-3-carbonitrile] | >100 |  | >100 |  | > 810 | 
O=C1O[C@H]([C@@H](O)CO)C(O)=C1O [Ascorbic acid, reference compound] | 27.62 ± 3.5 | 1 | 1.5 ± 0.2 |  |  | 
Cc1nn(-c2ccccc2)c2nc3c(cc12)-c1nc(N)c(C#N)c(-c2ccc(C#N)cc2)c1CC3 [5h, 2-Amino-4-(4-cyanophenyl)-10-methyl-8-phenyl-6,8-dihydro-5H-pyrazolo[3,4-j][1,7]phenanthroline-3-carbonitrile] | >100 |  | >100 | 85.48 ± 0.14 | ≥ 375 | 
